# Reference: US20240316038A1, “APOL1 INHIBITORS AND METHODS OF USE” (Maze Therapeutics, Inc., priority 2021, published 2024)
# Columns and labels:
# APOL1 G2 [1] = molecular target: T1, APOL1 G2 (Homo sapiens, UniProt O14791, DEL388-389); assay: Rescue of HEK293 cell death caused by overexpression of APOL1 (CellTiter-Glo luminescence), HEK293/T-REx APOL1 G2/clone #2; type: cell-based; conditions: reversal of cell death caused by overexpression of APOL1; geometric mean of at least 2 assay runs, † = single assay run (technical duplicate)
# T1 construct: expressed in transfected cells; host or cells: HEK293 T-REx clonal lines: HEK T-REx/GCaMP6f/APOL1 G2 K6.3 in A1, HEK293/T-REx APOL1 G2/clone #2 in A2
# T1 sequence (O14791 with tags, fused parts or gaps DEL388-389): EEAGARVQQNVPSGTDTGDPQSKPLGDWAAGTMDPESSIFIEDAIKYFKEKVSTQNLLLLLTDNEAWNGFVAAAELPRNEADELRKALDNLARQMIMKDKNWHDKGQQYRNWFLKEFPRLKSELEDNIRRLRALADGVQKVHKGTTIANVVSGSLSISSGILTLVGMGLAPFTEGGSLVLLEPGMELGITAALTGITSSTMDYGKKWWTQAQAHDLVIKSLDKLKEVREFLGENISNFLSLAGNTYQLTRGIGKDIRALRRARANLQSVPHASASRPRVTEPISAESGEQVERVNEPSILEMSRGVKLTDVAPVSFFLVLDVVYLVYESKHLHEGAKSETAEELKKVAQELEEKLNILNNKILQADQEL
# Summary of the method: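 HEK293/T-REx APOL1 G2 clone #2 cells, 5,000/well, induced with 6 ng/mL doxycycline and exposed to compound (8-point, 3-fold dilutions, 0.5% DMSO) for 17 h at 37 °C. Viability by CellTiter-Glo luminescence; EC50 for reversal of APOL1-induced death from a four-parameter logistic fit, geometric mean of ≥2 runs.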
# APOL1 G2 [2] = molecular target: T1, APOL1 G2; assay: APOL1 calcium transport inhibition assay (GCaMP6f calcium influx, FLIPR) in HEK T-REx/GCaMP6f/APOL1 G2 K6.3 cells; type: cell-based; conditions: inhibition of APOL1-mediated calcium influx; geometric mean of at least 2 assay runs, † = single assay run (technical duplicate)
# Summary of the method: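 HEK293 cells stably expressing GCaMP6f, APOL1 G2 induced 6 h with doxycycline (20 ng/mL added), then washed into Ca2+-free Tyrode's buffer pH 7.4. Compounds (8-point dose response) preincubated 10 min at room temperature, then Ca2+ injected to 5 mM final and influx read on FLIPR. AC50 reported as geometric mean of runs.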
AC50 (APOL1 G2 [2]) [nM],SMILES,EC50 (APOL1 G2 [1]) [nM]
3840,"COC1CCN(CCc2cccc(Cl)c2)CC1COc1ccc(S(C)(=O)=O)cc1 (single isomer, unassigned) [Compound 37, (3R,4R) or (3S,4S) or (3R,4S) or (3S,4R)-1-(3-chlorophenethyl)-4-methoxy-3-((4-(methylsulfonyl)phenoxy)methyl) piperidine]",> 6150
< 253,"COC1CCN(CCc2cccc(Cl)c2)CC1COc1ccc(S(C)(=O)=O)cc1 (single isomer, unassigned) [Compound 38, (3S,4S) or (3R,4S) or (3 S,4R) or (3R,4R)-1-(3-chlorophenethyl)-4-methoxy-3-((4-(methylsulfonyl)phenoxy)methyl) piperidine]",407
< 118,"CS(=O)(=O)c1ccc(CCC2CCCN(CCc3cccc(Cl)c3)C2)cc1 (single isomer, unassigned) [Compound 40, (S) or (R)-1-(3-chlorophenethyl)-3-(4-(methylsulfonyl)phenethyl)piperidine]",746
2110,"CS(=O)(=O)c1ccc(CCC2CCCN(CCc3cccc(Cl)c3)C2)cc1 (single isomer, unassigned) [Compound 41, (R) or (S)-1-(3-chlorophenethyl)-3-(4-(methylsulfonyl)phenethyl)piperidine]",2820
237,"CC1(C)CC(COc2ccc(S(C)(=O)=O)cc2)CN1CCc1cccc(Cl)c1 (single isomer, unassigned) [Compound 43, (S) or (R)-1-(3-chlorophenethyl)-2,2-dimethyl-4-((4-(methylsulfonyl)phenoxy)methyl) pyrrolidine]",31
2220,"CC1(C)CC(COc2ccc(S(C)(=O)=O)cc2)CN1CCc1cccc(Cl)c1 (single isomer, unassigned) [Compound 44, (R) or (S)-1-(3-chlorophenethyl)-2,2-dimethyl-4-((4-(methylsulfonyl)phenoxy)methyl)pyrrolidine]",2430
90.2,"C[C@@H]1CN(CCc2cccc(Cl)c2)C[C@H]1COc1ccc(N(C)S(C)(=O)=O)cc1 (single isomer, unassigned) [Compound 46, N-(4-(((3S,4S) or (3R,4R)-1-(3-chlorophenethyl)-4-methylpyrrolidin-3-yl)methoxy)phenyl)-N-methylmethanesulfonamide]",21
434,"C[C@H]1CN(CCc2cccc(Cl)c2)C[C@@H]1COc1ccc(N(C)S(C)(=O)=O)cc1 (single isomer, unassigned) [Compound 47, N-(4-(((3R,4R) or (3S,4S)-1-(3-chlorophenethyl)-4-methylpyrrolidin-3-yl)methoxy)phenyl)-N-methylmethanesulfonamide]",516
856,"CC1CC(COc2ccc(S(C)(=O)=O)cc2)CN1CCc1cccc(Cl)c1 (single isomer, unassigned) [Compound 53, rac-trans or cis-1-(3-chlorophenethyl)-2-methyl-4-((4-(methylsulfonyl)phenoxy)methyl)pyrrolidine]",1120
< 114,"CC1CC(COc2ccc(S(C)(=O)=O)cc2)CN1CCc1cccc(Cl)c1 (single isomer, unassigned) [Compound 54, rac-cis or trans-1-(3-chlorophenethyl)-2-methyl-4-((4-(methylsulfonyl)phenoxy)methyl)pyrrolidine]",> 30000
1290,"CC1CC(COc2ccc(S(C)(=O)=O)cc2)CN1CCc1cccc(Cl)c1 (single isomer, unassigned) [Compound 55, (2R,4S) or (2R,4R) or (2S,4R) or (2S,4S)-1-(3-chlorophenethyl)-2-methyl-4-((4-(methylsulfonyl)phenoxy)methyl)pyrrolidine]",1680
580,"CC1CC(COc2ccc(S(C)(=O)=O)cc2)CN1CCc1cccc(Cl)c1 (single isomer, unassigned) [Compound 56, (2R,4R) or (2S,4R) or (2S,4S) or (2R,4S)-1-(3-chlorophenethyl)-2-methyl-4-((4-(methylsulfonyl)phenoxy)methyl)pyrrolidine]",1680
< 5000,"CC1CC(COc2ccc(S(C)(=O)=O)cc2)CN1CCc1cccc(Cl)c1 (single isomer, unassigned) [Compound 57, (2S,4R) or (2S,4S) or (2R,4S) or (2R,4R)-1-(3-chlorophenethyl)-2-methyl-4-((4-(methylsulfonyl)phenoxy)methyl)pyrrolidine]",1680
72.7,"CC1CC(COc2ccc(S(C)(=O)=O)cc2)CN1CCc1cccc(Cl)c1 (single isomer, unassigned) [Compound 58, (2S,4S) or (2R,4S) or (2R,4R) or (2S,4R)-1-(3-chlorophenethyl)-2-methyl-4-((4-(methylsulfonyl)phenoxy)methyl)pyrrolidine]",< 41
637,"CS(=O)(=O)c1ccc(OC[C@@H](O)CN2CCCCC2Cc2cccc(Cl)c2)cc1 (single isomer, unassigned) [Compound 63, (2S)-1-((S) or (R)-2-(3-chlorobenzyl)piperidin-1-yl)-3-(4-(methylsulfonyl)phenoxy)propan-2-ol]",3960
570,"CS(=O)(=O)c1ccc(OC[C@@H](O)CN2CCCCC2Cc2cccc(Cl)c2)cc1 (single isomer, unassigned) [Compound 64, (2S)-1-((R) or (S)-2-(3-chlorobenzyl)piperidin-1-yl)-3-(4-(methylsulfonyl)phenoxy)propan-2-ol]",1120
12900,"CN(c1ccc(OC[C@@H](O)CN2CCC(c3cccc(Cl)c3)C2(C)C)cc1)S(C)(=O)=O (single isomer, unassigned) [Compound 69, N-(4-((S)-3-((S) or (R)-3-(3-chlorophenyl)-2,2-dimethylpyrrolidin-1-yl)-2-hydroxypropoxy)phe-nyl)-N-methylmethanesulfon-amide]",> 30000
295,"CN(c1ccc(OC[C@@H](O)CN2CCC(c3cccc(Cl)c3)C2(C)C)cc1)S(C)(=O)=O (single isomer, unassigned) [Compound 70, N-(4-((R)-(S)-3-((R) or (S)-3-(3-chlorophenyl)-2,2-dimethylpyrrolidin-1-yl)-2-hydroxypropoxy)phe-nyl)-N-methylmethanesulfon-amide]",303
314,"CN(c1ccc(OC[C@H](O)CN2CCC(c3cccc(Cl)c3)C2(C)C)cc1)S(C)(=O)=O (single isomer, unassigned) [Compound 72, N-(4-((R)-3-((S) or (R)-3-(3-chlorophenyl)-2,2-dimethylpyrrolidin-1-yl)-2-hydroxypropoxy)phe-nyl)-N-methylmethanesulfon-amide]",1220
3060,"CN(c1ccc(OC[C@H](O)CN2CCC(c3cccc(Cl)c3)C2(C)C)cc1)S(C)(=O)=O (single isomer, unassigned) [Compound 73, N-(4-((R)-3-((R) or (S)-3-(3-chlorophenyl)-2,2-dimethylpyrrolidin-1-yl)-2-hydroxypropoxy)phe-nyl)-N-methylmethanesulfon-amide]",> 17800
